{"source": "patent US20210196738A1", "about": "“PHARMACEUTICAL COMPOSITION COMPRISING A COLLOIDAL DISPERSION AND A THERAPEUTIC AGENT AND METHODS AND USES THEREOF” (priority 2017, published 2021)", "key": {"[1]": {"tested_on": "Salmonella enterica Typhimurium LT2", "assay": "Highly sensitive competition experiments (resistant vs wild type)", "assay_type": "cell-based", "settings": "50% sensitive / 50% Streptomycin-resistant bacteria; silver at 0.25×MIC; FIG. 1", "description": "(§1) The Minimum Inhibitory Concentration (MIC) of nanosilver (silver) was determined by two-fold dilution series in NaCl free Nutrient Broth (Sigma-Aldrich) in 15 ml screw cap tubes. The tubes were incubated in the dark over night at 37° C. without shaking. The MIC was determined as the lowest concentration of nanosilver (silver) at which no visible growth was observed."}, "[2]": {"tested_on": "S. enterica Typhimurium LT2", "assay": "AgSol-antibiotic synergy screening assay", "assay_type": "cell-based, Salmonella enterica", "settings": "FIGS. 2A-2F", "description": "(§2) Antibiotic stock solutions were serially diluted in 2-fold steps in pre-warmed (37° C.) nutrient broth (NB) to prepare an antibiotic concentration gradient above and below the minimal inhibitory concentration (MIC) of antibiotic (Table 4). 50 μl of prepared dilutions were aliquoted into a 96-well round bottom plate (Nunc, Thermo Fisher) for the screening assay.\n(§3) Silver formulation (AgSol1000 (particles with 19 Ag per silica particle), AgSol300 (particles with 6 Ag per silica particle, AgNO3), aluminum coated silica beads (159/500 (silica particles with aluminium silicate coating)) and uncoated silica beads (15/500) were diluted in pre-warmed (37° C.) NB. Bindzil®15/500 is an unmodified silica sol, whereas Bindzil®159/500 is a aluminosilicate modified silica sol. Bindzil® is sold by Akzo Nobel AB.\n(§4) 40 μl of the prepared dilutions were added to the 96-well plate containing antibiotic gradient to reach the final silver concentration of ¼×MICAgSol (silver) (specific for the microorganism used) (Table 5).\n(§5) The prepared plate was incubated in 37° C. incubator without shaking in the dark for 16-20 h and the optical density (OD620) of each well was measured in plate reader Multiscan FC (Thermo Fisher)."}, "[3]": {"tested_on": "Staphylococcus aureus USA300 JE2 (DA28823)", "assay": "AgSol-antibiotic synergy screening assay / MIC", "assay_type": "cell-based", "settings": "for effect of antibiotic when adding AgSol: S. aureus (USA300 JE2), FIGS. 4 and 5; for MIC: Staphylococcus aureus, USA300, antibiotic alone, S. aureus (DA28823), values used for antibiotic gradient", "description": "(§6) The MIC (Minimal Inhibitory Concentration) of a bacterium to a certain antimicrobial agent gives a quantitative estimate of the susceptibility. MIC is defined as the lowest concentration of antimicrobial agent required to inhibit growth of the organism. The principle is simple: Agar plates, tubes or microtitre trays with two-fold dilutions of antibiotics are inoculated with a standardized inoculum of the bacteria and incubated under standardized conditions following NCCLS guidelines. The next day, the MIC is recorded as the lowest concentration of antimicrobial agent with no visible growth. The MIC informs you about the degree of resistance and might give you important information about the resistance mechanism and the resistance genes involved. MIC-determination performed as agar dilution is regarded as the gold standard for susceptibility testing (Source: Global Salm-Surv—A global Salmonella surveillance and laboratory support project of the World Health Organization (4th Ed. April 2002, modified November 2010))\nas §1, §2, §3, §4\n(§7) Overnight (16-20 h) cultures of 3 biological replicates of the following microorganisms E. coli K-12 MG1655 (DA4201), E. coli K-12 MG1655 rpsL K42N (DA49828), Pseudomonas aeruginosa PAO1 (DA6215) or Staphylococcus aureus USA300 JE2 (DA28823) were grown in NB till saturation (37° C. incubator with 190 rpm shaking). Cultures were diluted in NB to 10^7 CFU/ml and 10 μl of the dilution were added to the 96-well plate containing antibiotic gradient and silver formulations or the bead controls to reach the final concentration of 10^5 CFU/well in 100 μl total volume per well. 3 technical replicates (3 wells) of specific antibiotic concentration in combination with silver and microorganism were used. A control plate containing bacterial cells mixed with only antibiotic gradient was always included too.\nas §5"}, "[4]": {"tested_on": "Staphylococcus aureus USA300 JE2 (DA28823)", "assay": "Time-kill assay", "assay_type": "cell-based", "settings": "antibiotic 2×MIC, silver ¼×MIC; FIG. 7A-B", "description": "(§8) Antibiotic stock solutions were diluted in pre-warmed (37° C.) nutrient broth (NB) to prepare 2×MIC concentration (Table 4) of antibiotic in the final volume of 2 ml in 15 ml tubes (Sarstedt).\n(§9) Silver formulation (AgSol1000, AgNO3) was diluted in pre-warmed (37° C.) NB and added to the tube containing antibiotic to reach the final silver concentration of ¼×MICAgsol (silver) (Table 5) in the final volume of 2 ml.\n(§10) Overnight (16-20 h) cultures of 2 biological replicates of the following microorganisms Pseudomonas aeruginosa PAO1 (DA6215) or Staphylococcus aureus USA300 JE2 (DA28823) were grown in NB till saturation (37° C. incubator with 190 rpm shaking). Cultures were diluted (1/100) in pre-warmed (37° C.) NB and incubated in 37° C. incubator with 190 rpm shaking until they reached exponential growth phase (OD600˜0.2). Final concentration of approximately 10^6 CFU/ml of exponentially dividing cells was used in the total volume of 2 ml mixture of antibiotic and silver formulation. Control tubes with only bacterial cells or bacterial cells mixed with only antibiotic or only silver formulation were also used.\n(§11) All tubes were incubated in 37° C. water bath with 150 rpm shaking and 100 μl samples were taken out at pre-determined time points for viable counts (2 technical replicates). CFU counts were normalized to the 0 h sample and were plotted as a function of time (h).\n(§12) A “Time Kill” test was performed with S. aureus USA3000 JE2 and Fusidic acid (FUS) and Mupirocin (MUP) and with P. aeruginosa (PAO1) with gentamicin (GEN). From a stock solution with bacteria with controlled growth at 37° C. during 16 h, […] were prepared: • Bacterial cells • Bacterial cells+AgSol • Bacterial cells+AgNO3; • Bacterial cells+AgSol+antibiotic • Bacterial cells+AgNO3+antibiotic\n(§13) Samples were taken after 0, 4, 8, 24 and 48 hours at 37° C. (incubation with shaking). The samples were plated for viable counts, CFU counts normalized to 0 h and plotted as a function of time."}, "[5]": {"tested_on": "E. coli K-12 MG1655 (DA4201)", "assay": "AgSol-antibiotic synergy screening assay / MIC (Ag/Antibiotic screen)", "assay_type": "cell-based, Escherichia coli", "settings": "for fold increase in effect with AgSol vs antibiotic alone: Table 6, E. coli; for Antibiotic MIC, NB + AgSol1000: antibiotic in combination with AgSol1000 at ¼ × MIC silver; for Fold change (antibiotic MIC, NB vs NB + AgSol1000): dash = MIC unchanged", "description": "as §6, §1, §2, §3, §4, §7, §5"}, "[6]": {"tested_on": "E. coli K-12 MG1655 rpsL K42N (DA49828)", "assay": "AgSol-antibiotic synergy screening assay / MIC", "assay_type": "cell-based", "settings": "Escherichia coli", "description": "as §6, §1, §2, §3, §4, §7, §5"}, "[7]": {"tested_on": "Pseudomonas aeruginosa PAO1 (DA6215)", "assay": "AgSol-antibiotic synergy screening assay / MIC", "assay_type": "cell-based", "description": "as §6, §1, §2, §3, §4, §7, §5"}, "[8]": {"tested_on": "gentamicin-resistant P. aeruginosa (DA60255)", "assay": "AgSol-antibiotic synergy screening assay / MIC, gentamicin-resistant strain", "assay_type": "cell-based, Pseudomonas aeruginosa", "settings": "AgSol1000 at 0.25×MIC; FIG. 9"}, "[9]": {"tested_on": "Pseudomonas aeruginosa PAO1 (DA6215)", "assay": "Time-kill assay", "assay_type": "cell-based", "settings": "for time-kill: effect of gentamicin in combination with AgSol: 0-48 h, FIGS. 8A, 8B", "description": "as §8, §9, §10, §11, §12, §13"}}, "note": "Entries after “also recorded” stand apart in the source; their conditions may differ. Where two headings read alike, the source gives them in different places."}
{"compound": "O=[N+]([O-])[O-].[Ag+]", "note": "[AgNO3, silver nitrate]", "values": [{"measurement": "effect of silver source in combination with Streptomycin", "setting": "[1]", "value": "synergistic effect"}, {"measurement": "effect of silver formulation in combination with antibiotics vs silica particles 159/500 and 15/500", "setting": "[2]; Streptomycin or Rifampicin", "value": "improved effect"}]}
{"compound": "CC(=O)O[C@H]1C[C@@]2(C)[C@@H](C[C@@H](O)[C@H]3[C@@]4(C)CC[C@@H](O)[C@@H](C)[C@@H]4CC[C@@]32C)/C1=C(\\CCC=C(C)C)C(=O)O", "note": "[Fusidic acid]", "values": [{"measurement": "effect of antibiotic when adding AgSol", "setting": "[3]", "value": "synergistic anti-bacterial effect; also recorded: there was an effect"}, {"measurement": "MIC", "setting": "[3]", "value": 0.12, "unit": "µg/mL"}, {"measurement": "time-kill: action of antibiotic in combination with AgSol", "setting": "[4]", "value": "bacteriostatic"}]}
{"compound": "C/C(=C\\C(=O)OCCCCCCCCC(=O)O)C[C@@H]1OC[C@H](C[C@@H]2O[C@H]2[C@@H](C)[C@H](C)O)[C@@H](O)[C@H]1O", "note": "[Mupirocin]", "values": [{"measurement": "effect of antibiotic when adding AgSol", "setting": "[3]", "value": "synergistic anti-bacterial effect; also recorded: there was an effect"}, {"measurement": "MIC", "setting": "[3]", "value": 0.12, "unit": "µg/mL"}, {"measurement": "time-kill: action of antibiotic in combination with AgSol", "setting": "[4]", "value": "bacteriostatic"}]}
{"compound": "[H]/N=C(/N)N[C@H]1[C@H](O)[C@@H](O)[C@H](O[C@@H]2O[C@@H](C)[C@](O)(C=O)[C@H]2O[C@@H]2O[C@@H](CO)[C@H](O)[C@@H](O)[C@@H]2NC)[C@@H](N/C(N)=N\\[H])[C@@H]1O", "note": "[Streptomycin]", "values": [{"measurement": "MIC", "setting": "[5]; Escherichia coli, MG1655, antibiotic alone, E. coli (DA4201), values used for antibiotic gradient, read-out: MIC", "value": 0.5, "unit": "µg/mL"}, {"measurement": "MIC", "setting": "[5]; Escherichia coli, MG1655, antibiotic alone, nutrient broth, read-out: Antibiotic MIC, NB", "value": 0.5, "unit": "µg/mL"}, {"measurement": "fold increase in effect with AgSol vs antibiotic alone", "setting": "[5]", "value": 17, "unit": "fold"}, {"measurement": "Antibiotic MIC, NB + AgSol1000", "setting": "[5]; nutrient broth", "value": 0.03, "unit": "µg/mL"}, {"measurement": "Fold change (antibiotic MIC, NB vs NB + AgSol1000)", "setting": "[5]", "value": 17, "unit": "x"}, {"measurement": "synergistic antibacterial effect of antibiotic in combination with AgSol", "setting": "[5]; vs antibiotic alone, E. coli MG 1655 K-12", "value": "markedly improved synergistic effect"}, {"measurement": "MIC", "setting": "[6]", "value": 2000, "unit": "µg/mL"}, {"measurement": "synergetic effect of antibiotic in combination with silver", "setting": "[2]; Salmonella", "value": "stronger synergetic effect"}]}
{"compound": "Gentamicin", "values": [{"measurement": "fold increase in effect with AgSol vs antibiotic alone", "setting": "[5]; listed as Gentamycin", "value": 17, "unit": "fold"}, {"measurement": "MIC", "setting": "[5]; antibiotic alone, E. coli (DA4201), values used for antibiotic gradient", "value": 0.5, "unit": "µg/mL"}, {"measurement": "Antibiotic MIC, NB", "setting": "[5]; antibiotic alone, nutrient broth", "value": 0.5, "unit": "µg/mL"}, {"measurement": "Antibiotic MIC, NB + AgSol1000", "setting": "[5]; nutrient broth", "value": 0.03, "unit": "µg/mL"}, {"measurement": "Fold change (antibiotic MIC, NB vs NB + AgSol1000)", "setting": "[5]", "value": 17, "unit": "x"}, {"measurement": "synergistic effect of gentamicin in combination with AgSol", "setting": "[7]; P. aeruginosa (PAO1), FIG. 3", "value": "−50", "unit": "%"}, {"measurement": "synergistic anti-bacterial effect of antibiotic in combination with colloidal dispersion", "setting": "[7]; P. aeruginosa, FIGS. 3, 8, 9", "value": "synergistic anti-bacterial effect"}, {"measurement": "MIC", "setting": "[7]; antibiotic alone, P. aeruginosa (DA6215), values used for antibiotic gradient", "value": 0.375, "unit": "µg/mL"}, {"measurement": "effect on bacteria (OD620) of combination silver/gentamicin", "setting": "[7]; gentamicin 0.19 ug/ml with silver", "value": "complete killing of bacteria"}, {"measurement": "effect on OD620 of gentamicin alone", "setting": "[7]; gentamicin 0.19 ug/ml without silver", "value": "almost no reduction in OD620"}, {"measurement": "anti-bacterial effect of AgSol and gentamycin on resistant strain", "setting": "[8]", "value": "confirmed the anti-bacterial effect"}, {"measurement": "time to almost complete killing (bactericidal effect), gentamicin in combination with AgSol", "setting": "[9]", "value": "≤ 24", "unit": "h"}, {"measurement": "time-kill: effect of gentamicin in combination with AgSol", "setting": "[9]", "value": "no bacterial growth is visible within 48 hours"}, {"measurement": "time-kill: effect of gentamicin in combination with AgSol", "setting": "[9]; listed as GEN", "value": "even stronger bactericidal effect"}]}
